Experimental findings from PubChem BioAssay AID2024 (Southern Research Specialized Biocontainment Screening …, 2009) are described below.

This test relates to virus-infected cells, titer reduction, log titer change. Put plainly: virus titer reduction by selected antiviral hits, confirmation, cell-based, 55 compounds from dose-response study (AID 2024).

Calls of active or inactive are those of the source. The rule behind the calls is not given here.

`COc1ccc(C2c3c(ncn(CCN4CCOCC4)c3=N)Oc3ccc4ccccc4c32)cc1` (stereo not drawn): the log titer change, negative = reduction (at 20 µM (top of the series)) was 0.93 (inactive). `Cn1c(=O)[nH]c(=O)c2c1nc(N1CCN(C(c3ccccc3)c3ccccc3)CC1)n2CCO`: the log titer change, negative = reduction (at 10 µM (top of the series)) was -1.17.

As for `CCN1CCN(CCCNC(=O)c2cc3c(s2)-c2ccccc2OC3)CC1`, where the note is “at 10 µM (top of the series)”, the log titer change, negative = reduction was -0.5 (inactive). Regarding `CCN(CC)CCNC(=O)c1sc2ncn(CC(=O)Nc3ccc(C)c(Cl)c3)c(=O)c2c1C`, for the setting “at 10 µM (top of the series)”, the log titer change, negative = reduction was 0.5 (inactive). Consider `Cc1ccc(-c2cc(C(=O)NCCCN3CCCC3)c3ccccc3n2)cc1C`, for which the log titer change, negative = reduction (at 20 µM (top of the series)) is 0.19 (inactive). Regarding `Cc1ccc2cc(C#N)c(N3CCCN(C(=S)NCCCN(C)C)CC3)nc2c1`, the log titer change, negative = reduction (at 20 µM (top of the series)) is -0.02 (inactive). For the molecule `CCN(CC)CCn1c(=N)n(CC(=O)c2ccc(Br)s2)c2ccccc21`, the log titer change, negative = reduction (at 20 µM (top of the series)) was 0.31 (inactive). The same measure, in the same setting: the result for `CN(CCCNC(=O)c1cc2c(Cl)nc3ccccc3c2s1)Cc1ccccc1` reads 0.43 (inactive); that for `CN(C)CCCN1c2ccc([N+](=O)[O-])cc2CCc2cc([N+](=O)[O-])ccc21`, 0 (inactive). The same measure, in the same setting: under `CN(C)CC(O)COc1ccc(C(C)(C)c2ccc(OCC(O)CN(C)C)cc2)cc1` (stereo not drawn) stands -1.17; under `CN(C)CCCN(C(=O)c1ccc2c(c1)OCCO2)c1nc2ccc(Cl)cc2s1`, -0.33 (inactive).

Turning to `CCN1CCN(CCCNC(=O)C2CCCN(c3nc4c(C)cc(C)cc4s3)C2)CC1` (stereo not drawn), the log titer change, negative = reduction (at 20 µM (top of the series)) was -0.36 (inactive). Same read-out and setting: the result for `CCCN1CCN(CCCNC(=O)c2cc3c(s2)-c2ccccc2OC3)CC1` reads 0 (inactive); that for `COc1cc(CNC(C)(C)CO)cc(Br)c1OCc1ccc(Cl)cc1`, 0.27 (inactive). Still for that read-out and setting: under `O=C(CSc1nc2ccccc2c(=O)n1-c1ccc(F)cc1)Nc1ccc2c(c1)CCC2` stands -0.69 (inactive); under `CCOc1ccc(/C=C/c2nc(C#N)c(NCCCN(C)C)o2)cc1`, 0.31 (inactive); under `CCN(CC)CCCNC(=O)c1cc2c(-c3cccc(OC)c3)nn(C)c2s1`, 0.93 (inactive). On the same count and under the same terms, under `CCOC(=O)c1c(CN2CCN(CCO)CC2)n(-c2ccccc2)c2cc(Br)c(O)cc12` stands -0.07 (inactive); under `CC[C@@H](C(=O)[C@@H](C)[C@@H](O)[C@H](C)CCc1ccc(C)c(O)c1C(=O)O)[C@H]1O[C@](CC)([C@H]2CC[C@](O)(CC)[C@H](C)O2)C[C@@H]1C`, 0.14 (inactive); under `CC(C)c1oc(=O)cc2c1[C@@H](O)[C@H]1OC(=O)[C@@]3(C)CC[C@@H](O)[C@@]2(C)C13` (stereo partly drawn), -1.17. For `CC1CCCN(CCCNC(=O)c2cc3c(s2)-c2ccccc2OC3)C1` (stereo not drawn), the log titer change, negative = reduction (at 20 µM (top of the series)) was -0.41 (inactive). Regarding `Cc1cccn2c(=O)c3cc(C(=O)NCCN4CCOCC4)c(=N)n(Cc4ccc(F)cc4)c3nc12`, the log titer change, negative = reduction (at 20 µM (top of the series)) was -0.03 (inactive). The same measure, in the same setting: under `Cc1c(NC(=O)COC(=O)c2cc(-c3ccc(-c4ccccc4)cc3)nc3ccccc23)c(=O)n(-c2ccccc2)n1C` stands 0.31 (inactive); under `Brc1ccc2c(c1)CN1CCCC1=N2`, -1.9; under `CN1CCN(CCCN2c3ccccc3Sc3ccc(Cl)cc32)CC1`, -0.64 (inactive).

In the case of `COc1ccc(C2c3ccc4ccccc4c3Oc3ncn(CCO)c(=N)c32)cc1` (stereo not drawn), the log titer change, negative = reduction (at 20 µM (top of the series)) was 0.39 (inactive).

Regarding `NCCCNc1nc(N)c([N+](=O)[O-])c(NC2CCCCC2)n1`, under “at 20 µM (top of the series)”, the log titer change, negative = reduction is -4.74. The same measure, in the same setting: the result for `Cc1c(Cc2ccccc2)c(NCCN(C)C)n2c(nc3ccccc32)c1C#N` reads 0.43 (inactive); that for `N=C1C(c2nc(-c3ccc(Cl)cc3)cs2)=C(O)CN1CCCN1CCOCC1`, 1.48 (inactive).

For the molecule `O=C(CN1C(=O)/C(=C/c2ccc(C(F)(F)F)cc2)Sc2ccccc21)NCCCN1CCOCC1`, the log titer change, negative = reduction (at 20 µM (top of the series)) was -0.16 (inactive). For `CC1CCN(CCCNC(=O)c2cc3c(s2)-c2ccccc2OC3)CC1`, the log titer change, negative = reduction (at 20 µM (top of the series)) is 0.43 (inactive).

With `Cc1ccc2oc(=O)c3cc(C(=O)NCCCN4CC(C)CC(C)C4)sc3c2c1` (stereo not drawn), the log titer change, negative = reduction (at 20 µM (top of the series)) was 0.31 (inactive).

For `Cc1ccc(C)c(N2CCN(CCCNC(=O)CCC(=O)N3CCOc4ccc(Cl)cc43)CC2)c1`, the log titer change, negative = reduction (at 20 µM (top of the series)) is -0.03 (inactive). Same read-out and setting: the result for `CCN1CCN(c2ncc(C(=O)Nc3cc(Cl)c(OC)cc3OC)c3ccccc23)CC1` reads -0.17 (inactive); that for `CN1CCN(CCNC(=O)c2ccc3nc(-c4ccc(F)cc4)c(-c4ccc(F)cc4)nc3c2)CC1`, -0.03 (inactive); that for `CCN(CC)CCCC(C)NC(=O)c1c(NC(=O)c2ccccc2)sc2c1CCCC2` (stereo not drawn), 0.55 (inactive).

For `CN(C)CCCNC(=O)c1cc2sc3ccccc3c2s1`, for the setting “at 20 µM (top of the series)”, the log titer change, negative = reduction is -0.17 (inactive). The same measure, in the same setting: the result for `CC1CCCC(C)N1CCCNC(=O)c1cc2c(s1)-c1ccccc1OC2` (stereo not drawn) reads 0.43 (inactive). Still for that read-out and setting: the result for `CN(C)CCCNC(=S)N1CCN(c2nc(-c3ccccc3)cs2)CC1` reads -0.02 (inactive); that for `COc1cc2c(OC(C)=O)c3c(c(-c4ccc5c(c4)OCO5)c2cc1OC)C(=O)OC3`, -2; that for `O=C(CSc1nc2ccccc2c(=O)n1-c1ccc(F)cc1F)Nc1ccc2c(c1)CCC2`, -2.18. As for `CCN1CCN(CCCNC(=O)c2ccc3c(Cl)c4c(nc3c2)CCCC4)CC1`, for the setting “at 20 µM (top of the series)”, the log titer change, negative = reduction was -0.02 (inactive).

On to `CC(C)c1oc(=O)cc2c1[C@@H](O)[C@H]1OC(=O)[C@@]3(C)C[C@@H](O)[C@@H](O)[C@@]2(C)C13` (stereo partly drawn), for which the log titer change, negative = reduction (at 20 µM (top of the series)) is -0.25 (inactive). As to `Cc1ccc2[nH]c(=O)c(CN(CCCN(C)C)C(=O)Nc3ccc(Cl)cc3)cc2c1`, the log titer change, negative = reduction (at 20 µM (top of the series)) was -2.15. As to `CCN(CC)CCNC(=O)C1CCN(S(=O)(=O)c2c(C)noc2/C=C/c2ccccc2F)CC1`, for the setting “at 20 µM (top of the series)”, the log titer change, negative = reduction is 0.27 (inactive). The same measure, in the same setting: under `COc1ccc(-c2csc(N(CCCN(C)C)C(=O)c3ccccc3Cl)n2)cc1` stands -1.5; under `CCCN(CCC)CCCNC(=S)Nc1ccc2nc(N3CCCC3)cc(C)c2c1`, -0.33 (inactive). Still for that read-out and setting: the result for `Cc1cc(C)cc(SCc2noc(C(=O)NCCN(C)C)c2C(=O)NCCN(C)C)c1` reads -0.17 (inactive).

Regarding `CC1=CC(C)(C)N2C(=O)C3(NCCc4c3[nH]c3ccccc43)c3cc(C)cc1c32` (stereo not drawn), for the setting “at 10 µM (top of the series)”, the log titer change, negative = reduction is -1.27. For `COc1ccc(C2c3ccc4ccccc4c3Oc3ncn(CCCO)c(=N)c32)cc1OC` (stereo not drawn), the log titer change, negative = reduction (at 20 µM (top of the series)) is 0.54 (inactive). On the same count and under the same terms, the result for `O=C(Oc1ccccc1)c1ccc(-n2cnnn2)cc1` reads -0.73 (inactive); that for `CCOc1ccc(NC(=O)c2c(NC(=O)CN3CCN(C)CC3)sc3c2CCC3)cc1`, 0 (inactive); that for `CCN(CC)CCCNC(=S)N1CCN(c2nc(-c3ccccc3)cs2)CC1`, -0.57 (inactive).
